Experimental data from the supplement of paper PMC12463676, “Small-molecule dissolution of stress granules by redox modulation benefits ALS models” (Nature Chemical Biology, 2025).

Experiments:
lipoamide = compound: NC(=O)CCCCC1CCSS1 [lipoamide]; experiment: thermal stability z-score vs DMSO; higher = more thermally stabilized by treatment; conditions: HeLa, lipoamide concentration 100 µM
Method: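 Cellular thermal proteome profiling in HeLa cells. Cells were treated with 100 µM lipoamide for 1 h, with or without 1 mM arsenate for a further 1 h, then heated to ten temperatures (37-66.3 °C), and soluble protein was quantified by TMT mass spectrometry relative to 0.1% DMSO controls. The thermal stability score (sum of log2 fold changes minus the abundance score) was transformed to a z-score; mean of n = 3 experiments.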

potassium arsenate = compound: O=[As]([O-])(O)O.[K+] [potassium arsenate]; experiment: as above; conditions: HeLa; arsenate concentration 1 mM
Method: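 Cellular thermal proteome profiling in HeLa cells treated with 1 mM arsenate for 1 h (DMSO pretreatment), heated to ten temperatures (37-66.3 °C). Soluble protein was quantified by TMT mass spectrometry relative to DMSO controls; the thermal stability score was transformed to a z-score; mean of n = 3 experiments.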

[1] = arsenate co-treatment: 1 mM arsenate 1 h
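Further: each temperature applied for 3 min, abundance score taken as mean log2 fold change at the two lowest temperatures, z-score obtained by mean subtraction and division by SD.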

Chain of UniProt Q03426 (Q03426 whole entry): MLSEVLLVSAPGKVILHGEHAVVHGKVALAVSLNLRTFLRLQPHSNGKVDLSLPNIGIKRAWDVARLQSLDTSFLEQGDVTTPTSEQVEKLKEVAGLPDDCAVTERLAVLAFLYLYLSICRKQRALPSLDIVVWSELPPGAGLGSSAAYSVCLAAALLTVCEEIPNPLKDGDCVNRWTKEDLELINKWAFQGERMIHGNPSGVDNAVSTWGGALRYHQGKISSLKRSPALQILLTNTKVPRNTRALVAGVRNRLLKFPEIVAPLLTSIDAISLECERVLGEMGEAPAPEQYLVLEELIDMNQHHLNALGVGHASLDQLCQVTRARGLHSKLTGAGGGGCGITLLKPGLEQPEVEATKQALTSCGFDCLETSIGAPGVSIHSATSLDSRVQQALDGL
Chain of UniProt Q96H55 (Q96H55 whole entry): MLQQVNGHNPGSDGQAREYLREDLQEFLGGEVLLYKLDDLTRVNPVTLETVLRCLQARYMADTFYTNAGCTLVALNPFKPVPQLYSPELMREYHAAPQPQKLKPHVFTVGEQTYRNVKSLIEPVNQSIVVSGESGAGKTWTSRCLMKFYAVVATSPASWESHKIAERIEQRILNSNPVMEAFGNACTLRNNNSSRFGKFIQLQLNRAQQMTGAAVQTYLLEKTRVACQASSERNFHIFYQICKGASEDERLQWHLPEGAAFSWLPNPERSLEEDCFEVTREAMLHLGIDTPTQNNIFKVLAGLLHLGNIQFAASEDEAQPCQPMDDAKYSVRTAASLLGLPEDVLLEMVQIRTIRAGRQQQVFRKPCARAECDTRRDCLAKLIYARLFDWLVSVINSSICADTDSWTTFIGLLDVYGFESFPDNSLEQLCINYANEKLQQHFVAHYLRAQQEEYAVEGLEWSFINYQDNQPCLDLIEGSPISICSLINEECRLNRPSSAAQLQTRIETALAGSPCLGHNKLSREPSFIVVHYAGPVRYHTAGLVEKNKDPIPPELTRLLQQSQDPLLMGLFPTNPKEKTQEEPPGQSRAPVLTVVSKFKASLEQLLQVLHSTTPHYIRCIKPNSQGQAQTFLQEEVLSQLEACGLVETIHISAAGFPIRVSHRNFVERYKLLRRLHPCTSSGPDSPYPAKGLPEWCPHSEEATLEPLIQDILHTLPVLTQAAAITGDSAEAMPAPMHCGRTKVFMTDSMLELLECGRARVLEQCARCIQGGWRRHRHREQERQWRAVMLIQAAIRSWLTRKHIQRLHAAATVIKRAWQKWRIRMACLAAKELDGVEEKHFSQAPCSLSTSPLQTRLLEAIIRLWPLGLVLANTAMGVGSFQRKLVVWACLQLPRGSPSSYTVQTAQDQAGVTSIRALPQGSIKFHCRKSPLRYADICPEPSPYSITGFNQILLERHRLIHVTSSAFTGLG
Chain of UniProt O43795 (O43795 whole entry): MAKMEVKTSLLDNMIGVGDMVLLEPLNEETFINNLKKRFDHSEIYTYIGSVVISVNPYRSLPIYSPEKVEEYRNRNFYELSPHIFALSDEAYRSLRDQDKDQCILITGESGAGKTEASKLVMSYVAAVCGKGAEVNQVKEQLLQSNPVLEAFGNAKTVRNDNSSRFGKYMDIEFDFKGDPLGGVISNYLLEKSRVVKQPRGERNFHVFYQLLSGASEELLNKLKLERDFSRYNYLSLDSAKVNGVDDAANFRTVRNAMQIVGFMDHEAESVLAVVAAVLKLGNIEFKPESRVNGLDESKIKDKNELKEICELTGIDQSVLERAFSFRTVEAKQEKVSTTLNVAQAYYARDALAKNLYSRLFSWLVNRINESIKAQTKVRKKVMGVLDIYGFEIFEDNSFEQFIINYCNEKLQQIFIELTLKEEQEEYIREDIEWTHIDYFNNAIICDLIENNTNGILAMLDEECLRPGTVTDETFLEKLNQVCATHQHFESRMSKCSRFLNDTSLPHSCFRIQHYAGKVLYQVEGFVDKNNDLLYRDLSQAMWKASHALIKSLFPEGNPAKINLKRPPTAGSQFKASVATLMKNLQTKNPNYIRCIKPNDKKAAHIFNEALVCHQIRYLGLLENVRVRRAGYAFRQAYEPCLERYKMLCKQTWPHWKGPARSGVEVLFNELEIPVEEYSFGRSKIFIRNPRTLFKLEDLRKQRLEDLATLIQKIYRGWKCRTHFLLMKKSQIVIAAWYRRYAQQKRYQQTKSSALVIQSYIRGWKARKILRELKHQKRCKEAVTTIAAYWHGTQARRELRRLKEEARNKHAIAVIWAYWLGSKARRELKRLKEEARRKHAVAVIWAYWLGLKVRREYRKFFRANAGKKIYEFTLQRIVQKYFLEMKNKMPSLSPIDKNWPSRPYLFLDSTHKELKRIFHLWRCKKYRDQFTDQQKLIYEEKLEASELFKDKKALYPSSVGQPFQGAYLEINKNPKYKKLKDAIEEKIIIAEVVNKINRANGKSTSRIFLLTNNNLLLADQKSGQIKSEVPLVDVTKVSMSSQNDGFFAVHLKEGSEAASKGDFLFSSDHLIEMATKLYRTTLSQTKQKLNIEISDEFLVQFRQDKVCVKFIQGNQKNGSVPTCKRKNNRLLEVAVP
Chain of UniProt Q9NQX4 (Q9NQX4 whole entry): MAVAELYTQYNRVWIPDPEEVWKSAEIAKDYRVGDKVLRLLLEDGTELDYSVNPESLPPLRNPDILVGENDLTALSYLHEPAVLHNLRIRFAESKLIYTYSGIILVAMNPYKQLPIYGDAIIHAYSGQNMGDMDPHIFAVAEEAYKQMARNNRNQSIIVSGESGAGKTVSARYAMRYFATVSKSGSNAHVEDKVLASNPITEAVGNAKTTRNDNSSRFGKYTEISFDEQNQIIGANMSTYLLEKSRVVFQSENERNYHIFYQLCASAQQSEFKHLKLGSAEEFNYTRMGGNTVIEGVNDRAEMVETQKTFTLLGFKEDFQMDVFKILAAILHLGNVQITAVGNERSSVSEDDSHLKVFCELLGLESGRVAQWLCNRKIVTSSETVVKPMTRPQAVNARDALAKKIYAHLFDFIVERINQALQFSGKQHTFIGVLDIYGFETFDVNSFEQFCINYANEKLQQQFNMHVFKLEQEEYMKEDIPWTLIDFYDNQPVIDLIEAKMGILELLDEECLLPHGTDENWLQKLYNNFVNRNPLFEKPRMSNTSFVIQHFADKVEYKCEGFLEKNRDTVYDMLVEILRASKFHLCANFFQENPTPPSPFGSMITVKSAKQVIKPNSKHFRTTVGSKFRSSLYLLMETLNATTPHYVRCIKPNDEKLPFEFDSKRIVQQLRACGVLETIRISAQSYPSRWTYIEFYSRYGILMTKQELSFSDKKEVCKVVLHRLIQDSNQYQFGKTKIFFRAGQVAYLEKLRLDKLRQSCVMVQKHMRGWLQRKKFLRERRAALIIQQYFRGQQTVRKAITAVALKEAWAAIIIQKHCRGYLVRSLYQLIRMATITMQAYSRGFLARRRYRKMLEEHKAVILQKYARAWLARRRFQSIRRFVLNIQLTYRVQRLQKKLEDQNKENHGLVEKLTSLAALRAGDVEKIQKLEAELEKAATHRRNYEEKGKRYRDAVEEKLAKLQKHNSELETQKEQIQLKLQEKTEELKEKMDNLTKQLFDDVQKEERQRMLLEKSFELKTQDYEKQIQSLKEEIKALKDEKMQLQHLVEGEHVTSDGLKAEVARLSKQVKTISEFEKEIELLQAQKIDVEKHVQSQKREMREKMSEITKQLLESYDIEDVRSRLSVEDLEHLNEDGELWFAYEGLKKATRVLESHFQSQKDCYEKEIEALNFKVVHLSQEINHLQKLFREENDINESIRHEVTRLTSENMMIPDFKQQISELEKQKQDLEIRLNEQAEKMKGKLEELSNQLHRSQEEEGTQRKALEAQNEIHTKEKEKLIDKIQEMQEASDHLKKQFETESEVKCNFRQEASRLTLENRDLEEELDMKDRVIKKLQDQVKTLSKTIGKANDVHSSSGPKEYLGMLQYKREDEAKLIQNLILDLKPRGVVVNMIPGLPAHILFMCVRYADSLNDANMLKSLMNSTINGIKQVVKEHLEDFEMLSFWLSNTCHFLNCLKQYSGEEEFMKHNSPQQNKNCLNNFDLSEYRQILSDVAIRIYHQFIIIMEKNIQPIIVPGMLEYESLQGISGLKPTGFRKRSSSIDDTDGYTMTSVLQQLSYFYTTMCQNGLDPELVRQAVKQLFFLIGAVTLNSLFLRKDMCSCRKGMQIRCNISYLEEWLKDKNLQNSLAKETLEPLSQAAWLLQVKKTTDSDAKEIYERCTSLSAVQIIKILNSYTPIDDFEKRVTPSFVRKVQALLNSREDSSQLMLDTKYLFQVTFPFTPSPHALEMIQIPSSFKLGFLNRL
Chain of UniProt Q6NZ67 (Q6NZ67 whole entry): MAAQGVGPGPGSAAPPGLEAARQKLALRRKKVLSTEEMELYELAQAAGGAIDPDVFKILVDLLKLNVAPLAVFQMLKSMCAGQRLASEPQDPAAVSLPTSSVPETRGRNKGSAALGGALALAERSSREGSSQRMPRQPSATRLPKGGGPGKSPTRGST
Chain of UniProt P61599 (P61599 whole entry): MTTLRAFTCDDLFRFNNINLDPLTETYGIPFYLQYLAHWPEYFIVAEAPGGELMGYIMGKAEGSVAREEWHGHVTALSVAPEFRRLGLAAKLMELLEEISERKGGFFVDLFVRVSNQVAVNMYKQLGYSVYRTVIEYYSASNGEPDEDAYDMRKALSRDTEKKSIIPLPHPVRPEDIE
Chain of UniProt P41227 (P41227 whole entry): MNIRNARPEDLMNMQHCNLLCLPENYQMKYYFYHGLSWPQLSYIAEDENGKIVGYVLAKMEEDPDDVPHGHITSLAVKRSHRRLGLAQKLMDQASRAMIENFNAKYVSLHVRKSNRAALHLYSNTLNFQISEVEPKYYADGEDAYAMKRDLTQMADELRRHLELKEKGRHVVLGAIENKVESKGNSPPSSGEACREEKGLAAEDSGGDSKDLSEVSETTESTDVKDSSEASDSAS
Chain of UniProt Q969H8 (Q969H8 whole entry): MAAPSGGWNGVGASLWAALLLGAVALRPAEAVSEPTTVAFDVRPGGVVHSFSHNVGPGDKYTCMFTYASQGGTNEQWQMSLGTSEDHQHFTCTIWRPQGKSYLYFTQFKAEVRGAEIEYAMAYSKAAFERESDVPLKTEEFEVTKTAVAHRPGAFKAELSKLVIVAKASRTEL

Target	thermal stability z-score (lipoamide; [1])	thermal stability z-score (lipoamide; arsenate co-treatment: none)	thermal stability z-score (potassium arsenate)
MTX3 (UniProt Q5HYI7)	0.929	0.179	-0.0757
MUL1 (UniProt Q969V5)	-0.0704	-0.261	-2.82
MUT (UniProt P22033)	-0.252	-0.48	-1.02
MVB12A (UniProt Q96EY5)	0.652	-0.0184	0.35
MVD (UniProt P53602)	0.0441	-0.0153	-0.0067
MVK (UniProt Q03426)	-0.352	-0.323	-0.675
MVP (UniProt Q14764)	0.484	0.37	1.08
MXRA7 (UniProt P84157)	0.254	0.307	-0.34
MYADM (UniProt Q96S97)	0.0599	0.353	1.34
MYBBP1A (UniProt Q9BQG0)	1.21	0.675	-1.35
MYCBP2 (UniProt O75592)	-0.0354	0.179	-0.207
MYDGF (UniProt Q969H8)	-1.32	-1.06	-0.0349
MYH9 (UniProt P35579)	0.442	0.363	0.2
MYH10 (UniProt P35580)	0.273	0.19	0.375
MYH14 (UniProt Q7Z406)	0.363	0.126	0.458
MYL6 (UniProt P60660)	0.576	0.451	-0.312
MYL6B (UniProt P14649)	-0.283	0.233	-1.03
MYL12A|MYL12B	0.352	0.436	-0.0176

Target	thermal stability z-score (lipoamide; [1])	thermal stability z-score (lipoamide; arsenate co-treatment: none)	thermal stability z-score (potassium arsenate)
MYO1B (UniProt O43795)	0.967	0.54	-2.1
MYO1C (UniProt O00159)	1.12	0.329	-1.94
MYO1E (UniProt Q12965)	0.918	0.582	-0.8
MYO5A (UniProt Q9Y4I1)	0.351	0.43	0.118
MYO5C (UniProt Q9NQX4)	0.173	0.236	0.0128
MYO6 (UniProt Q9UM54)	0.203	0.26	-0.115
MYO9B (UniProt Q13459)	-0.266	-0.1	-0.364
MYO10 (UniProt Q9HD67)	0.223	0.44	0.432
MYO18A	-0.283	0.122	0.197
MYO19 (UniProt Q96H55)	0.0427	0.347	-0.139
MYOF (UniProt Q9NZM1)	-0.259	0.0805	0.0213
MYPN (UniProt Q86TC9)	0.126	0.447	0.803
MZT2B (UniProt Q6NZ67)	0.0548	0.181	0.0663
N4BP1 (UniProt O75113)	0.103	0.0755	-0.0968
NAA10 (UniProt P41227)	1.16	0.982	0.405
NAA15 (UniProt Q9BXJ9)	0.838	0.593	0.812
NAA16 (UniProt Q6N069)	0.378	0.394	-0.173
NAA20 (UniProt P61599)	0.753	0.153	0.0823
